Key:
hCB1 [1] = biological target: T1, hCB1 (Homo sapiens, UniProt P21554); experiment: hCB1 cAMP agonist assay (HEK-293 cells); format: cell-based
hCB2 [2] = biological target: T2, hCB2 (Homo sapiens, UniProt P34972); experiment: hCB2 GTPγS agonist assay (HEK-293 membranes); format: biochemical
Procedure, shortened: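 Membranes from HEK-293 cells transfected with human CB2 (5 μg) incubated with SPA beads, 0.1 nM [35S]GTPγS and 20 uM GDP in 50 mM HEPES pH 7.4, 100 mM NaCl, 5 mM MgCl2, 0.001% saponin. Incubation 90 min at room temperature. Agonist-stimulated binding read by scintillation counting.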

hCB1 [3] = biological target: T1, hCB1; experiment: hCB1 GTPγS agonist assay (HEK-293 membranes); format: biochemical
From the text: cDNA expression clones for human CB 1 (hCB1, Genbank Accession No. AY225225) and human CB2 (hCB2, Genbank Accession No. AY242132) expressed in vector pcDNA3.1+ were purchased from UMR cDNA Resource Center, Rolla, Mo. (Clone ID CNR01L000 for hCB1; CNR0200000 for hCB2).
Stable, HEK-293-derived cell lines that recombinantly express hCB1 or hCB2 were established. In brief, the clone hCB1 (CNR1L) or hCB2 (CNR2) was transfected into human embryonic kidney cells (HEK-293) using Lipofectamine 2000 (Gibco, Cat#11668-019) according to the manufacturer's protocol. Transfected clones were isolated by single colony purification and clones were screened for receptor expression using a whole cell, ^3H—CP 55,940 radioligand binding assay. HEK-293 stable cells were maintained in Dulbecco's modified Eagles medium (DMEM) containing 10% fetal bovine serum, 2 mM L-glutamine and 0.5 mg/mL G-418.
Membranes were isolated from transfected cells as follows. Monolayers of cultured cells were washed twice with phosphate-buffered saline (PBS). Cells were scraped into 20 mM HEPES, pH 7.4, 10 mM EDTA containing complete cocktail protease inhibitors (Roche, Catalog #11 697 498 001), and were homogenized by an electric-powered mechanical probe homogenizer (Omni GLH; probe G7-195S) for 40 seconds at 7000 rpm. Homogenates were centrifuged 10 minutes at 1000×g at 4° C. The supernatant was collected and was centrifuged for 1 hour at 40,000×g. The supernatant was then decanted and the resulting pellet was re-suspended in 20 mM HEPES, pH 7.4, 5 mM MgCl2, 1 mM EDTA, 10% sucrose with complete cocktail protease inhibitors. Protein concentration of membrane suspensions were measured by Bradford Protein Assay using bovine serum albumin as the standard (BioRad catalog #500-0006). Protein concentrations of membrane suspensions were adjusted with the final buffer in the range of 5 to 10 mg/mL and were stored at −80° C. until further use.
^35S GTPγS binding assays were performed by incubating recombinant cell membranes prepared above (5 μg) in the presence of scintillation proximity assay beads (SPA beads, Catalog #RPNQ0252 GE Healthcare, Buckinghamshire, England) in GTPγS binding buffer [50 mM HEPES (pH 7.4), 100 mM NaCl, 5 mM MgCl2, 0.001% saponin (Sigma catalog #S4521)] supplemented with 20 uM GDP (Sigma catalog #G7127) in the presence or absence of test compound. The reaction was carried out in 96-well microplates with 0.1 nM [^35S]GTPγS (specific activity=1250 Ci/mmol; Perkin Elmer catalog #NEG030X250UC) in a final volume of 100 μL. After a 90 min room temperature incubation, the reaction was analyzed using a scintillation counter (Perkin Elmer Microbeta instrument). Binding data were analyzed using GraphPad Prism.

hCB2 [4] = biological target: T2, hCB2; experiment: hCB2 radioligand binding assay ([3H]-CP 55,940 displacement); settings: hCB2 IC50 (CP displ, nM, HEK), HEK membranes
Procedure, shortened: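 Membranes from cells transfected with human CB2 cDNA (pcDNA3.1+), kept in 20 mM HEPES pH 7.4, MgCl2, EDTA, sucrose with protease inhibitors.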

hCB2 [5] = biological target: T2, hCB2; experiment: hCB2 cAMP agonist assay (HEK-293 cells); format: cell-based
Procedure, shortened: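 HEK-293 cells stably expressing hCB2, treated 30 min at 37° C with compound in HBSS/10 mM HEPES/0.1% BSA alongside forskolin (90 uM in the 3× solution, not final).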

hCB1 [6] = biological target: T1, hCB1; experiment: hCB1 radioligand binding assay ([3H]-CP 55,940 displacement); settings: hCB1 IC50 (CP displ, nM, HEK), HEK membranes
Procedure, shortened: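 Membranes from stable HEK-293 cells expressing recombinant hCB1 (2-10 μg protein) incubated 90 minutes at room temperature with 0.5 nM [3H]-CP 55,940 in 50 mM Tris-HCl pH 7.5, 5 mM MgCl2, 2.5 mM EDTA, 0.1% fatty acid free BSA. Filtration then scintillation counting; nonspecific binding with 1 μM unlabelled CP 55,940.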

[7] = cAMP agonist, HEK, 96-well, read-out: hCB1 EC50 (cAMP ag, nM, HEK (96-well))
[8] = GTPγS agonist, HEK membranes, read-out: hCB1 EC50 (GTPyS ag, nM, HEK)
[9] = GTPγS agonist, HEK membranes, read-out: hCB2 EC50 (GTPyS ag, nM, HEK)
[10] = cAMP agonist, HEK, 96-well, read-out: hCB2 EC50 (cAMP ag, nM, HEK (96-well))

T1 sequence (P21554 whole entry): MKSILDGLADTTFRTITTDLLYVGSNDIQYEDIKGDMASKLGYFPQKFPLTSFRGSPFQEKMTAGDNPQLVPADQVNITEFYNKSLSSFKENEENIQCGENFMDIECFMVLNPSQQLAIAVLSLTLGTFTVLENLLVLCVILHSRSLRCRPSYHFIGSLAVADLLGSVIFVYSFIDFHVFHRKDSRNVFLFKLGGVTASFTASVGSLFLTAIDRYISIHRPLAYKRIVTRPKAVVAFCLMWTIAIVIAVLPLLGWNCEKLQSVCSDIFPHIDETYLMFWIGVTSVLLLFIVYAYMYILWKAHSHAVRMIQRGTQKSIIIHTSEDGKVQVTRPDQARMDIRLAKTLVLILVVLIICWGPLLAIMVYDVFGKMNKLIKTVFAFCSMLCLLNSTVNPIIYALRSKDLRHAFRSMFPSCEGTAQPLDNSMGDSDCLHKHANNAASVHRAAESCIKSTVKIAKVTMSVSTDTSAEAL
T2 sequence (P34972 whole entry): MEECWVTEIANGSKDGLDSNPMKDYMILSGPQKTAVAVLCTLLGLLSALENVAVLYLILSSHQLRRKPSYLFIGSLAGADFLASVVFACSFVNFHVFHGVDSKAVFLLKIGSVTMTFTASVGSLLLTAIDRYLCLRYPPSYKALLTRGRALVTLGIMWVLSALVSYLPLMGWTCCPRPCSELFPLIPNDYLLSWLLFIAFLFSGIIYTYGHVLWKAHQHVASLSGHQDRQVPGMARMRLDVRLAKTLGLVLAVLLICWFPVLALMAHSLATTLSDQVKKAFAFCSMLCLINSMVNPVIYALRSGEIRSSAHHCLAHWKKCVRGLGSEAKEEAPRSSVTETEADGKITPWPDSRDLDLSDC

Row | Structure (SMILES) | EC50 (hCB1 [1]) | EC50 (hCB2 [2]) | EC50 (hCB1 [3]) | IC50 (hCB2 [4]) | EC50 (hCB2 [5]) | IC50 (hCB1 [6]) | EC50 (hCB1 [1]; [7]) | EC50 (hCB1 [3]; [8]) | EC50 (hCB1 [1]; cAMP agonist, HEK, 24-well, read-out: hCB1 EC50 (cAMP ag, nM HEK (24-well))) | hCB1 EC50 (cAMP ag, nM, HEK (96-well)) (hCB1 [1]; cAMP agonist, HEK, 96-well) | EC50 (hCB2 [2]; [9]) | EC50 (hCB2 [5]; [10]) | hCB1 EC50 (cAMP ag, nM HEK (24-well)) (hCB1 [1]; cAMP agonist, HEK, 24-well)
1 | CCn1c(C(=O)c2cn(CC3CCOCC3)c3ccccc23)cc2ccsc21 [Compound I-16] | < 100 nM | < 100 nM | < 100 nM | < 100 nM | < 100 nM | < 100 nM | – | – | – | – | – | – | –
2 | CCCn1c(C(=O)c2c(C)[nH]c3sccc23)cc2ccsc21 [Compound I-84] | – | – | – | – | – | – | < 100 nM | > 10000 nM | – | – | – | – | –
3 | CCCn1cc(C(=O)c2cc3ccsc3n2CC)c2ccccc21 [Compound I-70] | 100 to 1000 nM | < 100 nM | 100 to 1000 nM | < 100 nM | < 100 nM | 100 to 1000 nM | – | – | – | – | – | – | –
4 | CCn1c(C(=O)c2c3c(n(CC4CCOCC4)c2C)CCCC3)cc2ccsc21 [Compound I-86] | – | < 100 nM | – | < 100 nM | < 100 nM | < 100 nM | 100 to 1000 nM | 100 to 1000 nM | – | – | – | – | –
5 | CCCn1c(C(=O)c2c(C)n(CCC)c3sccc23)cc2ccsc21 [Compound I-83] | – | – | – | – | < 100 nM | – | < 100 nM | 100 to 1000 nM | < 100 nM | – | – | – | –
6 | CCCn1c(C)c(C(=O)c2cc3scnc3n2CC)c2ccccc21 [Compound I-31] | – | 100 to 1000 nM | – | 100 to 1000 nM | < 100 nM | 1000 to 10000 nM | – | – | – | NS (“Not Significant,” which means less than 30% agonist activity when compared to the positive control) | – | – | –
7 | CCCn1c(C)c(C(=O)c2cc3ccsc3n2CC2CCOCC2)c2ccccc21 [Compound I-72] | – | – | – | 100 to 1000 nM | – | 100 to 1000 nM | – | – | – | NS (“Not Significant,” which means less than 30% agonist activity when compared to the positive control) | 100 to 1000 nM | < 100 nM | –
8 | CCCn1c(C)c(C(=O)c2cc3sccc3[nH]2)c2ccccc21 [Compound I-81] | – | 100 to 1000 nM | – | 100 to 1000 nM | 100 to 1000 nM | 1000 to 10000 nM | – | – | – | NS (“Not Significant,” which means less than 30% agonist activity when compared to the positive control) | – | – | –
9 | CCCn1c(C)c(C(=O)c2cc3ccsc3n2CCC)c2c1CCCC2 [Compound I-77] | – | – | – | < 100 nM | – | 1000 to 10000 nM | – | – | – | NS (“Not Significant,” which means less than 30% agonist activity when compared to the positive control) | < 100 nM | < 100 nM | NS (“Not Significant,” which means less than 30% agonist activity when compared to the positive control)
10 | CCCn1c(C)c(C(=O)c2cc3ccsc3n2CCC)c2cc(C)ccc21 [Compound I-69] | – | < 100 nM | – | < 100 nM | < 100 nM | 1000 to 10000 nM | – | – | – | NS (“Not Significant,” which means less than 30% agonist activity when compared to the positive control) | – | – | –
11 | CCCn1c(C)c(C(=O)c2cc3ccsc3[nH]2)c2ccccc21 [Compound I-74] | – | 100 to 1000 nM | – | 100 to 1000 nM | 100 to 1000 nM | 1000 to 10000 nM | – | – | – | NS (“Not Significant,” which means less than 30% agonist activity when compared to the positive control) | – | – | –
12 | CCCn1c(C(=O)c2c(C)n(C)c3ccccc23)cc2ccsc21 [Compound I-53] | – | – | – | 100 to 1000 nM | – | > 10000 nM | – | – | – | NS (“Not Significant,” which means less than 30% agonist activity when compared to the positive control) | 100 to 1000 nM | 100 to 1000 nM | –
13 | CCCn1cc(C(=O)c2cc3ccsc3n2C)c2ccccc21 [Compound I-32] | 100 to 1000 nM | < 100 nM | – | < 100 nM | < 100 nM | 100 to 1000 nM | – | – | – | – | – | – | –
14 | CCCn1c(C(=O)c2c(C)n(CCN3CCOCC3)c3ccccc23)cc2ccsc21 [Compound I-73] | 100 to 1000 nM | < 100 nM | – | < 100 nM | < 100 nM | 100 to 1000 nM | – | – | – | – | – | – | –
15 | CCCn1c(C)c(C(=O)c2cc3cc(Cl)sc3n2CCC)c2ccccc21 [Compound I-49] | – | < 100 nM | – | < 100 nM | < 100 nM | 1000 to 10000 nM | – | – | – | NS (“Not Significant,” which means less than 30% agonist activity when compared to the positive control) | – | – | –
16 | CCCn1c(C(=O)c2c(C)n(CCN3CCOCC3)c3sccc23)cc2ccccc21 [Compound I-11] | – | < 100 nM | – | < 100 nM | < 100 nM | < 100 nM | – | 100 to 1000 nM | – | – | – | – | –
17 | CCCn1c(C)c(C(=O)c2cc3ccsc3n2CC)c2cccc(OC)c21 [Compound I-36] | 100 to 1000 nM | < 100 nM | – | < 100 nM | < 100 nM | 100 to 1000 nM | – | – | – | – | – | – | –
18 | CCCCn1c(C)c(C(=O)c2cc3ccsc3n2CCC)c2ccccc21 [Compound I-58] | < 100 nM | < 100 nM | – | < 100 nM | < 100 nM | 100 to 1000 nM | – | – | – | – | – | – | –
19 | CCCn1c(C)c(C(=O)c2cc3ccsc3n2CCC)c2c1CCCCC2 [Compound I-80] | – | – | – | < 100 nM | – | 100 to 1000 nM | 1000 to 10000 nM | – | – | – | < 100 nM | < 100 nM | –
20 | CCCn1c(C(=O)c2c(C)n(CCC)c3sccc23)cc2ccccc21 [Compound I-14] | – | 100 to 1000 nM | – | 100 to 1000 nM | 100 to 1000 nM | 100 to 1000 nM | – | – | – | NS (“Not Significant,” which means less than 30% agonist activity when compared to the positive control) | – | – | –
